Columns and labels:
[1] = test system: BiFC-tau Venus HEK293 cells (tau aggregation, hTau441); experiment: BiFC-tau Venus HEK293 cell assay monitoring tau aggregation under thapsigargin; type: cell-based, human; conditions: for activity at 10 µM / IC50: Homo sapiens; for activity at 10 µM: HEK293-BiFC-tau-Venus cells co-treated with 10 μM compound and 80 nM thapsigargin for 24 hours, read-out: BiFC-tau intensity (%); for IC50: HEK293, inhibition of BiFC-tau Venus fluorescence, 80 nM thapsigargin, table head prints no unit, μM, read-out: BiFC-tau intensity (IC50)
Procedure: Phenotype-based screening to monitor tau assembly was performed using BiFC-tau Venus HEK293 cells in a high-throughput manner. Cells were seeded in 384-well plates at a density of 2.8×10^3 cells/well in 40 μL medium for 24 hours. Cells were treated with 80 nM thapsigargin (Sigma-Aldrich) in 10 μL medium and then ˜ 3,000 pDOS library compounds (10 μM), including compounds according to the present invention, using a 0.1 μL pinning tool. For knockdown experiments, cells were transfected with 5 or 10 nM siRNA using Lipofectamine RNAiMAX and incubated for 48 hours before thapsigargin treatment. […] Plates were scanned on an INCell Analyzer 2000 (GE Healthcare) at λex/λem=490/525 nm for Venus fluorescence (for the FITC channel) and λex/λem=350/455 nm for nuclei (for the DAPI channel). Bright-field images were taken to confirm cell morphology, and images were analyzed to quantify Venus intensity per cell using developer software (GE Healthcare).
1-1. According to the method described in Examples 1-15 above, the expression of Venus-based bimolecular fluorescence complemented-tau (BiFC-tau) was confirmed using HEK293 human embryonic kidney cells, thereby phenotyping the phenotype-based screening was performed.
The N-terminal Venus (VN173) and C-terminal Venus (VC155) fragment sequences are fused with the full-length human tau (hTau441) sequence to form the BiFC-tau Venus HEK293 cell system. Soluble tau dimers can be measured by monitoring the turn-on/off signal of Venus fluorescence through co-expression of the two fused vectors, hTau441-VN173 and hTau441-VC1 55.
As a stimulator of tau aggregation, thapsigargin (TG; an ER stress inducer), a direct inhibitor of sarco/endoplasmic reticulum Ca2^+-ATPase, was used. This disrupts calcium homeostasis. Thapsigargin treatment induces tau dimerization (tau aggregation), which can be confirmed by BiFC-tau Venus fluorescence turn-on.

[2] = test system: acute Alzheimer's mouse model; experiment: Acute Alzheimer's mouse model (acquisition and probe test); type: in vivo; conditions: acute Alzheimer's mouse model
Procedure: 7-1. Potential therapeutic effect of SB1617 in an acute Alzheimer's mouse model was identified, and the design for the experiment is schematically shown in FIG. 40
7-3. As a result of confirming the treatment efficacy through a probe test, after removing the platform, it was performed by recording how many times the mouse passed the position where the platform was […]

SMILES	activity at 10 µM [1]	melting point	IC50 [1]	change in Venus fluorescence intensity ([1]; various concentrations with 80 nM TG for 20 hours)	learning ability (Acquisition test), rank order [2]
CN(Cc1ccc(Cl)cc1)c1ncnc2c1[C@@H]1SC[C@H](CN2)N1S(=O)(=O)c1ccc([N+](=O)[O-])cc1 [Compound 131]	98%				
CN(Cc1ccccc1)c1ncnc2c1[C@@H]1OC[C@H](CN2)N1S(=O)(=O)c1ccccc1 [Compound 108]	105%	120 to 122 °C			
CNc1ncnc2c1[C@@H]1OC[C@H](CN2)N1S(=O)(=O)c1ccc([N+](=O)[O-])cc1 [Compound 136]	10%				
COc1ccc(S(=O)(=O)N2[C@H]3CNc4ncnc(N(C)Cc5ccccc5)c4[C@@H]2OC3)cc1 [Compound 102]	79%	121 to 123 °C			
CN(CCc1ccccc1)c1ncnc2c1[C@@H]1OC[C@H](CN2)N1S(=O)(=O)c1ccc([N+](=O)[O-])cc1 [Compound 113]	71%	108 to 110 °C			
COc1ccc(S(=O)(=O)N2[C@H]3CNc4ncnc(N(C)Cc5ccc(Cl)cc5)c4[C@@H]2OC3)cc1 [Compound 121]	51%	156 to 158 °C	6.6 µM		
COc1ccc(CN(C)c2ncnc3c2[C@@H]2SC[C@H](CN3)N2S(=O)(=O)c2ccc([N+](=O)[O-])cc2)cc1 [Compound 135]	57%				
CN(Cc1ccccc1)c1ncnc2c1[C@@H]1OC[C@H](CN2)N1S(=O)(=O)c1cccnc1 [Compound 110]	130%	185 to 187 °C			
Cc1ccc(S(=O)(=O)N2[C@H]3CNc4ncnc(N(C)Cc5ccccc5)c4[C@@H]2OC3)cc1 [Compound 101]	65%	150 to 152 °C	9.1 µM		
CN(Cc1ccc(Cl)cc1)c1ncnc2c1[C@@H]1OC[C@H](CN2)N1S(=O)(=O)c1ccc(F)cc1 [Compound 120]	81%	150 to 152 °C			
CN(Cc1ccc(Cl)cc1)c1ncnc2c1[C@@H]1OC[C@H](CN2C(=O)c2ccc(F)cc2)N1S(=O)(=O)c1ccc([N+](=O)[O-])cc1 [Compound 129]	70%				
CCN1C[C@H]2CO[C@@H](c3c(N(C)Cc4ccc(Cl)cc4)ncnc31)N2S(=O)(=O)c1ccc([N+](=O)[O-])cc1 [Compound 130]	70%				
CC(C)N(Cc1ccccc1)c1ncnc2c1[C@@H]1OC[C@H](CN2)N1S(=O)(=O)c1ccc([N+](=O)[O-])cc1 [Compound 114]	47%	85 to 87 °C	6.9 µM		
CN(Cc1ccccc1)c1ncnc2c1[C@@H]1OC[C@H](CN2)N1S(=O)(=O)c1cccc([N+](=O)[O-])c1 [Compound 104]	115%				
CN(Cc1ccccc1)c1ncnc2c1[C@@H]1OC[C@H](CN2)N1S(=O)(=O)c1ccc([N+](=O)[O-])cc1 [Compound 105]	46%	97 to 99 °C	5.2 µM		
CN(Cc1ccccc1)c1ncnc2c1[C@@H]1OC[C@H](CN2)N1S(=O)(=O)Cc1ccccc1 [Compound 109]	84%	78 to 80 °C			
CN(Cc1ccccc1)c1ncnc2c1[C@@H]1OC[C@H](CN2)N1S(=O)(=O)c1cccs1 [Compound 111]	110%	112 to 114 °C			
CN(C)c1ncnc2c1[C@@H]1OC[C@H](CN2)N1S(=O)(=O)c1ccc([N+](=O)[O-])cc1 [Compound 112]	90%	118 to 120 °C			

SMILES	activity at 10 µM [1]	melting point	IC50 [1]	change in Venus fluorescence intensity ([1]; various concentrations with 80 nM TG for 20 hours)	learning ability (Acquisition test), rank order [2]
CN(Cc1ccccc1)c1ncnc2c1[C@@H]1OC[C@H](CN2)N1S(=O)(=O)c1ccccc1[N+](=O)[O-] [Compound 103]	102%				
CN(Cc1ccc(Cl)cc1)c1ncnc2c1[C@@H]1SC[C@H](CN2)N1C(=O)Nc1ccc([N+](=O)[O-])cc1 [Compound 133]	94%				
CN(Cc1ccc(N=[N+]=[N-])cc1)c1ncnc2c1[C@@H]1OC[C@H](CN2)N1S(=O)(=O)c1ccc([N+](=O)[O-])cc1 [Compound 119]	56%	88 to 90 °C	4.6 µM		
CN(Cc1ccc(Cl)cc1)c1ncnc2c1CN(S(=O)(=O)c1ccc([N+](=O)[O-])cc1)[C@H](CO)CN2 [Compound 127]	100%				
CN(Cc1ccc(Cl)cc1)c1ncnc2c1[C@@H]1OC[C@H](CN2C(=O)C2CC2)N1S(=O)(=O)c1ccc([N+](=O)[O-])cc1 [Compound 123]	78%	124 to 126 °C			
C#Cc1ccc(S(=O)(=O)N2[C@H]3CNc4ncnc(N(C)Cc5ccc(N=[N+]=[N-])cc5)c4[C@@H]2OC3)cc1 [Compound 124]	50%	139 to 141 °C	8.1 µM		
CN(Cc1ccc(Cl)cc1)c1ncnc2c1[C@H]1OCC[C@@H](CN2)N1S(=O)(=O)c1ccc([N+](=O)[O-])cc1 [Compound 128]	95%				
CN(Cc1ccc(Cl)cc1)c1ncnc2c1[C@@H]1SC[C@@H](CN2)N1C(=O)OC(C)(C)C [Compound 132]	80%				
C=CCOC(=O)N1[C@H]2CNc3ncnc(N(C)Cc4ccc(Cl)cc4)c3[C@@H]1OC2 [Compound 126]	100%				
CN(Cc1ccc(Cl)cc1)c1ncnc2c1[C@H]1OC[C@@H](CN2)N1S(=O)(=O)c1ccc([N+](=O)[O-])cc1 [Compound 125]	98%				
C=C(C)c1ncnc2c1[C@@H]1OC[C@H](CN2)N1S(=O)(=O)c1ccc([N+](=O)[O-])cc1 [Compound 115]	99%	200 to 202 °C			
COc1ccc(-c2ncnc3c2[C@@H]2OC[C@H](CN3)N2S(=O)(=O)c2ccc([N+](=O)[O-])cc2)cc1 [Compound 116]	135%	250 to 252 °C			
CN(Cc1ccc(Cl)cc1)c1ncnc2c1[C@H]1N(S(=O)(=O)c3ccc([N+](=O)[O-])cc3)[C@@H](CN2)CS1(=O)=O [Compound 134]	100%				
CC(=O)N1C[C@H]2CO[C@@H](c3c(N(C)Cc4ccc(Cl)cc4)ncnc31)N2S(=O)(=O)c1ccc([N+](=O)[O-])cc1 [Compound 122]	81%	105 to 107 °C			
CN(Cc1ccccc1)c1ncnc2c1[C@@H]1OC[C@H](CN2)N1S(C)(=O)=O [Compound 107]	94%	136 to 138 °C		the activity was lost	
CN(Cc1ccc(F)cc1)c1ncnc2c1[C@@H]1OC[C@H](CN2)N1S(=O)(=O)c1ccc([N+](=O)[O-])cc1 [Compound 118]	55%	102 to 104 °C	7.6 µM		
COc1cc2c(cc1OC)C(=O)C(CC1CCN(Cc3ccccc3)CC1)C2 (centres unmarked) [Donepezil, reference compound]					WT >Donepezil >SB-1617>Vehicle
CN(Cc1ccccc1)c1ncnc2c1[C@@H]1OC[C@H](CN2)N1S(=O)(=O)c1ccc(F)cc1 [Compound 106]	81%	105 to 107 °C			

Source: patent US20230322805A1, “NOVEL PYRIMIDODIAZEPINE DERIVATIVES OR USES THEREOF” (SPARK BIOPHARMA, INC., priority 2020, published 2023)
